Experimental data reported in US6949542B2, “Dihydro-benzo[b][1,4]diazepin-2-one derivatives” (Hoffman-La Roche Inc., priority 2002, dated 2005).

melting point [°C]	SMILES
229	O=C1CC(c2cccc(-c3ccnc(C(F)(F)F)c3)c2)=Nc2cc(Cl)c(C(F)(F)F)cc2N1 [Example 266, 7-Chloro-8-trifluoromethyl-4-[3-(2-trifluoromethyl-pyridin-4-yl)-phenyl]-1,3-dihydro-benzo[b][1,4]diazepin-2-one]
225	COCc1cc(-c2cccc(C3=Nc4cc(OCC(F)(F)F)c(C(F)(F)F)cc4NC(=O)C3)c2)ccn1 [Example 400, 4-[3-(2-Methoxymethyl-pyridin-4-yl)-phenyl]-7-(2,2,2-trifluoro-ethoxy)-8-trifluoromethyl-1,3-dihydro-benzo[b][1,4]diazepin-2-one]
244	CCOc1cc2c(cc1C(F)(F)F)NC(=O)CC(c1cccc(-c3ccnc(C4CC4)c3)c1)=N2 [Example 348, 4-[3-(2-Cyclopropyl-pyridin-4-yl)-phenyl]-7-ethoxy-8-trifluoromethyl-1,3-dihydro-benzo[b][1,4]diazepin-2-one]
205 to 211	Cc1cc2c(cc1C(F)(F)F)NC(=O)CC(c1cccc(-c3ccnc(C#N)c3)c1)=N2 [Example 199, 4-[3-(8-Methyl-4-oxo-7-trifluoromethyl-4,5-dihydro-3H-benzo[b][1,4]diazepin-2-yl)-phenyl]-pyridine-2-carbonitrile]
213	CCc1ncccc1-c1cccc(C2=Nc3cc(C)c(C(F)(F)F)cc3NC(=O)C2)c1 [Example 234, 4-[3-(2-Ethyl-pyridin-3-yl)-phenyl]-7-methyl-8-trifluoromethyl-1,3-dihydro-benzo[b][1,4]diazepin-2-one]
198 to 201	O=C1CC(c2cccc(-c3cccnc3)c2)=Nc2cc(N3CCOCC3)c(C(F)(F)F)cc2N1 [Example 188, 7-Morpholin-4-yl-4-(3-pyridin-3-yl-phenyl)-8-trifluoromethyl-1,3-dihydro-benzo[b][1,4]diazepin-2-one]
216	CCOc1cc2c(cc1C(F)(F)F)NC(=O)CC(c1cccc(-c3ccnc(CO)c3)c1)=N2 [Example 287, 4-[3-(2-Hydroxymethyl-pyridin-4-yl)-phenyl]-7-ethoxy-8-trifluoromethyl-1,3-dihydro-benzo[b][1,4]diazepin-2-one]
202	CC(C)c1cc(-c2cccc(C3=Nc4cc(OCC(F)(F)F)c(C(F)(F)F)cc4NC(=O)C3)c2)ccn1 [Example 275, 4-[3-(2-Isopropyl-pyridin-4-yl)-phenyl]-7-(2,2,2-trifluoro-ethoxy)-8-trifluoromethyl-1,3-dihydro-benzo[b][1,4]diazepin-2-one]
232	CCOc1cc2c(cc1C(F)(F)F)NC(=O)CC(c1cccc(-c3cc(C)nc(C4CC4)c3)c1)=N2 [Example 258, 4-[3-(2-Cyclopropyl-6-methyl-pyridin-4-yl)-phenyl]-7-ethoxy-8-trifluoromethyl-1,3-dihydro-benzo[b][1,4]diazepin-2-one]
246	Cc1cc2c(cc1C(F)(F)F)NC(=O)CC(c1cccc(-c3cccnc3C)c1)=N2 [Example 260, 7-Methyl-4-[3-(2-methyl-pyridin-3-yl)-phenyl]-8-trifluoromethyl-1,3-dihydro-benzo[b][1,4]diazepin-2-one]
220 to 221	Cc1ccncc1-c1cccc(C2=Nc3ccc(C(F)(F)F)cc3NC(=O)C2)c1 [Example 226, 4-[3-(4-Methyl-pyridin-3-yl)-phenyl]-8-trifluoromethyl-1,3-dihydro-benzo[b][1,4]diazepin-2-one]
190	Cc1cc2c(cc1Cl)NC(=O)CC(c1cccc(-c3ccc(C(C)C)nc3)c1)=N2 [Example 179, 8-Chloro-4-[3-(6-isopropyl-pyridin-3-yl)-phenyl]-7-methyl-1,3-dihydro-benzo[b][1,4]diazepin-2-one]
240 to 243	CNc1cc(-c2cccc(C3=Nc4cc(C)c(Cl)cc4NC(=O)C3)c2)ncn1 [Example 331, 8-Chloro-7-methyl-4-[3-(6-methylamino-pyrimidin-4-yl)-phenyl]-1,3-dihydro-benzo[b][1,4]diazepin-2-one]
233	Cc1ccc(-c2cccc(C3=Nc4ccc(C(F)(F)F)cc4NC(=O)C3)c2)nn1 [Example 14, 4-[3-(6-Methyl-pyridazin-3-yl)-phenyl]-8-trifluoromethyl-1,3-dihydro-benzo[b][1,4]diazepin-2-one]
224 to 225	N#Cc1cc(-c2cccc(C3=Nc4cc(OCC(F)(F)F)c(Cl)cc4NC(=O)C3)c2)ccn1 [Example 203, 4-{3-[7-Chloro-4-oxo-8-(2,2,2-trifluoro-ethoxy)-4,5-dihydro-3H-benzo[b][1,4]diazepin-2-yl]-phenyl}-pyridine-2-carbonitrile]
223	Cc1cc(-c2cccc(C3=Nc4cc(OCC(F)(F)F)c(C(F)(F)F)cc4NC(=O)C3)c2)ccn1 [Example 114, 4-[3-(2-Methyl-pyridin-4-yl)-phenyl]-7-(2,2,2-trifluoro-ethoxy)-8-trifluoromethyl-1,3-dihydro-benzo[b][1,4]diazepin-2-one]
199 to 200	CCOc1cc2c(cc1C(F)(F)F)NC(=O)CC(c1cccc(-c3ccnc(N4CCOCC4)c3)c1)=N2 [Example 385, 7-Ethoxy-4-[3-(2-morpholin-4-yl-pyridin-4-yl)-phenyl]-8-trifluoromethyl-1,3-dihydro-benzo[b][1,4]diazepin-2-one]

melting point [°C]	SMILES
226	O=C1CC(c2cccc(-c3ccnc(C(F)(F)F)c3)c2)=Nc2cc(Cl)c(Cl)cc2N1 [Example 267, 7,8-Dichloro-4-[3-(2-trifluoromethyl-pyridin-4-yl)-phenyl]-1,3-dihydro-benzo[b][1,4]diazepin-2-one]
189	CCOc1cc2c(cc1C(F)(F)F)NC(=O)CC(c1cccc(-c3cc(C)ncc3C)c1)=N2 [Example 139, 4-[3-(2,5-Dimethyl-pyridin-4-yl)-phenyl]-7-ethoxy-8-trifluoromethyl-1,3-dihydro-benzo[b][1,4]diazepin-2-one]
235	Cc1cncc(-c2cccc(C3=Nc4cc(C)c(Cl)cc4NC(=O)C3)c2)n1 [Example 131, 8-Chloro-7-methyl-4-[3-(6-methyl-pyrazin-2-yl)-phenyl]-1,3-dihydro-benzo[b][1,4]diazepin-2-one]
197	CC(C)c1ccc(-c2cccc(C3=Nc4cc(OCC(F)(F)F)c(C(F)(F)F)cc4NC(=O)C3)c2)cn1 [Example 178, 4-[3-(6-Isopropyl-pyridin-3-yl)-phenyl]-7-(2,2,2-trifluoro-ethoxy)-8-trifluoromethyl-1,3-dihydro-benzo[b][1,4]diazepin-2-one]
176 to 180	Cc1cc(C)c(-c2cccc(C3=Nc4cc(OCC(F)(F)F)c(C(F)(F)F)cc4NC(=O)C3)c2)cn1 [Example 253, 4-[3-(4,6-Dimethyl-pyridin-3-yl)-phenyl]-7-(2,2,2-trifluoro-ethoxy)-8-trifluoromethyl-1,3-dihydro-benzo[b][1,4]diazepin-2-one]
205 to 206	CCCOc1cc2c(cc1C(F)(F)F)NC(=O)CC(c1cccc(-c3cc(C)nc(C)c3)c1)=N2 [Example 219, 4-[3-(2,6-Dimethyl-pyridin-4-yl)-phenyl]-7-propoxy-8-trifluoromethyl-1,3-dihydro-benzo[b][1,4]diazepin-2-one]
242	O=C1CC(c2cccc(-c3ccccn3)c2)=Nc2ccc(C#Cc3ccccc3)cc2N1 [Example 164, 8-Phenylethynyl-4-(3-pyridin-2-yl-phenyl)-1,3-dihydro-benzo[b][1,4]diazepin-2-one]
199	O=C1CC(c2cccc(-c3ccnc(CO)c3)c2)=Nc2cc(Cl)c(C(F)(F)F)cc2N1 [Example 284, 7-Chloro-4-[3-(2-hydroxymethyl-pyridin-4-yl)-phenyl]-8-trifluoromethyl-1,3-dihydro benzo[b][1,4]diazepin-2-one]
205	CCOc1cc2c(cc1C(F)(F)F)NC(=O)CC(c1cccc(-c3cnc(CC)cc3C)c1)=N2 [Example 255, 7-Ethoxy-4-[3-(6-ethyl-4-methyl-pyridin-3-yl)-phenyl]-8-trifluoromethyl-1,3-dihydro-benzo[b][1,4]diazepin-2-one]
217	CCc1cc(-c2cccc(C3=Nc4cc(Cl)c(C(F)(F)F)cc4NC(=O)C3)c2)ccn1 [Example 156, 7-Chloro-4-[3-(2-ethyl-pyridin-4-yl)-phenyl]-8-trifluoromethyl-1,3-dihydro benzo[b][1,4]diazepin-2-one]
209	Cc1cc2c(cc1C(F)(F)F)NC(=O)CC(c1cccc(-c3ccnc(CC(C)C)c3)c1)=N2 [Example 262, 4-[3-(2-Isobutyl-pyridin-4-yl)-phenyl]-7-methyl-8-trifluoromethyl-1,3-dihydro benzo[b][1,4]diazepin-2-one]
213 to 214	COCCOc1cc2c(cc1C(F)(F)F)NC(=O)CC(c1cccc(-c3cc(C)nc(C)c3)c1)=N2 [Example 243, 4-[3-(2,6-Dimethyl-pyridin-4-yl)-phenyl]-7-(2-methoxy-ethoxy)-8-trifluoromethyl-1,3-dihydro-benzo[b][1,4]diazepin-2-one]
241	O=C1CC(c2cccc(-c3cnccn3)c2)=Nc2ccc(-c3ccccc3F)cc2N1 [Example 92, 8-(2-Fluoro-phenyl)-4-(3-pyrazin-2-yl-phenyl)-1,3-dihydro-benzo[b][1,4]diazepin-2-one]
130	CC(C)CN(C)c1cc2c(cc1C(F)(F)F)NC(=O)CC(c1cccc(-c3ccnc(CO)c3)c1)=N2 [Example 366, 4-[3-(2-Hydroxymethyl-pyridin-4-yl)-phenyl]-7-(isobutyl-methyl-amino)-8-trifluoromethyl-1,3-dihydro-benzo[b][1,4]diazepin-2-one]
208	Cc1cc(-c2cccc(C3=Nc4cc(C)c(Cl)cc4NC(=O)C3)c2)c(C)cn1 [Example 134, 8-Chloro-4-[3-(2,5-dimethyl-pyridin-4-yl)-phenyl]-7-methyl-1,3-dihydro-benzo[b][1,4]diazepin-2-one]
182	O=C1CC(c2cccc(-c3ccnc(CN4CCCC4)c3)c2)=Nc2cc(OCC(F)(F)F)c(C(F)(F)F)cc2N1 [Example 380, 4-[3-(2-Pyrrolidin-1-ylmethyl-pyridin-4-yl)-phenyl]-7-(2,2,2-trifluoro-ethoxy)-8-trifluoromethyl-1,3-dihydro-benzo[b][1,4]diazepin-2-one]
